Converted amounts (≈) assume the structure as drawn.
Columns and labels:
S. aureus^MS [1] = assay: MIC by broth microdilution (aerobic pathogens), test strain 1; type: cell-based; conditions: Staphylococcus aureus; test strain 1, S. aureus^MS; read-out: MIC
How it was run: (§1)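 Broth microdilution followed CLSI M7-A5 against aerobic staphylococcal and enterococcal strains, including vancomycin-resistant isolates. MIC was the lowest concentration inhibiting growth by 90% relative to untreated control.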

S. aureus^MS [2] = assay: MIC by broth microdilution (aerobic pathogens), test strain 2; type: cell-based; conditions: Staphylococcus aureus; test strain 2, S. aureus^MS; read-out: MIC
How it was run: as §1

S. epidermis = assay: MIC by broth microdilution (aerobic pathogens), test strain 5; type: cell-based; conditions: Staphylococcus epidermidis; test strain 5, S. epidermis; read-out: MIC
How it was run: as §1

S. epidermis^MR = assay: MIC by broth microdilution (aerobic pathogens), test strain 6; type: cell-based, Methicillin resistant Staphylococcus epidermidis; conditions: Staphylococcus epidermidis; test strain 6, S. epidermis^MR (methicillin resistant); read-out: MIC
How it was run: as §1

E. faecalis = assay: MIC by broth microdilution (aerobic pathogens), test strain 7; type: cell-based; conditions: Enterococcus faecalis; test strain 7, E. faecalis; read-out: MIC
How it was run: as §1

E. faecalis^LinR = assay: MIC by broth microdilution (aerobic pathogens), test strain 9; type: cell-based, Linezolid resistant Enterococcus faecalis; conditions: Enterococcus faecalis; test strain 9, E. faecalis^LinR (linezolid resistant); read-out: MIC
How it was run: as §1

M. avium = assay: MIC by resazurin (REMA) assay against Mycobacterium, test strain 21; type: cell-based; conditions: test strain 21, M. avium, resazurin, read-out: MIC
Method: (§2) In order to test the antibacterial activity, the medium of Mycobacterium cultured to late log phase was diluted so as to be 4.0×10^5 cells/well in Middlebrook 7H10 agar medium (Difco) supplemented with 10% oleic acid, albumin, dextrose, catalase (OADC, Becton Dickinson) and 0.05% Tween 80 (Sigma Aldrich) and was dispensed into a 96-well plate. The compounds were treated so that DMSO was 1%, and after 3 days, a 0.025% resazurin (REMA) solution was dispensed, and the growth of the bacteria was confirmed after culturing. The MIC value was measured for the antibacterial activity through resazurin (excitation 530 nm, emission 590 nm).

M. intracelluare = assay: MIC by resazurin (REMA) assay against Mycobacterium, test strain 22; type: cell-based; conditions: Mycobacterium intracellulare; test strain 22, M. intracelluare, resazurin; read-out: MIC
Method: as §2

M. abscessus = assay: MIC by resazurin (REMA) assay against Mycobacterium, test strain 23; type: cell-based; conditions: Mycobacteroides abscessus; test strain 23, M. abscessus, resazurin; read-out: MIC
Method: as §2

E. faecium^LinR = assay: MIC by broth microdilution (aerobic pathogens), test strain 12; type: cell-based, Linezolid resistant Enterococcus faecium; conditions: Enterococcus faecium; test strain 12, E. faecium^LinR (linezolid resistant); read-out: MIC
How it was run: as §1

S. aureus^VR = assay: MIC by broth microdilution (aerobic pathogens), test strain 4; type: cell-based, Vancomycin resistant Staphylococcus aureus; conditions: Staphylococcus aureus; test strain 4, S. aureus^VR (vancomycin resistant); read-out: MIC
Method: The antibacterial activity of the compounds of Examples 1 to 48 of the present invention against aerobic pathogens were evaluated by measuring the minimum concentration of the antibiotic capable of inhibiting bacterial growth by 90% compared to the growth of the non-drug treated control group. MIC was measured by the broth microdilution method based on CLSI standards [Reference: Clinical and Laboratory Standards Institute Document. (2000) Methods for Dilution Antimicrobial Susceptibility Test for Bacteria that Grow Aerobically-Fifth Edition: M7-A5. CLSI, Villanova, PA].
All 13 strains such as methicillin susceptible Staphylococcus aureus (MSSA), methicillin resistant Staphylococcus aureus (MRSA), Vancomycin resistant Staphylococcus aureus (VRSA), Staphylococcus epidermidis, methicillin resistant Staphylococcus epidermidis, Enterococcus faecalis, Vancomycin resistant Enterococcus faecalis, Enterococcus faecium, Vancomycin resistant Enterococcus faecium were used.

E. faecalis^VanA = assay: MIC by broth microdilution (aerobic pathogens), test strain 8; type: cell-based, Vancomycin resistant Enterococcus faecalis; conditions: Enterococcus faecalis; test strain 8, E. faecalis^VanA (vancomycin resistant); read-out: MIC
How it was run: as §1

E. faecium = assay: MIC by broth microdilution (aerobic pathogens), test strain 10; type: cell-based; conditions: Enterococcus faecium; test strain 10, E. faecium; read-out: MIC
How it was run: as §1

C. difficile 161 = assay: MIC by agar dilution against Clostridioides difficile, test strain 16; type: cell-based; conditions: test strain 16, C. difficile 161, anaerobic, agar dilution, read-out: MIC
C. difficile 173 = assay: MIC by agar dilution against Clostridioides difficile, test strain 17; type: cell-based; conditions: test strain 17, C. difficile 173, anaerobic, agar dilution, read-out: MIC
C. difficile 174 = assay: MIC by agar dilution against Clostridioides difficile, test strain 18; type: cell-based; conditions: test strain 18, C. difficile 174, anaerobic, agar dilution, read-out: MIC
M. tuberculosis = assay: MIC by resazurin (REMA) assay against Mycobacterium, test strain 20; type: cell-based
Method: as §2

C. difficile 9689 = assay: MIC by agar dilution against Clostridioides difficile, test strain 13; type: cell-based; conditions: test strain 13, C. difficile 9689, anaerobic, agar dilution, read-out: MIC
C. difficile 152 = assay: MIC by agar dilution against Clostridioides difficile, test strain 14; type: cell-based; conditions: test strain 14, C. difficile 152, anaerobic, agar dilution, read-out: MIC

Structure (SMILES)	MIC (S. aureus^MS [1])	MIC (S. aureus^MS [2])	MIC (S. epidermis)	MIC (S. epidermis^MR)	MIC (E. faecalis)	MIC (E. faecalis^LinR)	MIC (M. avium)	MIC (M. intracelluare)	MIC (M. abscessus)	MIC (E. faecium^LinR)	MIC (S. aureus^VR)	MIC (E. faecalis^VanA)	MIC (E. faecium)	MIC (C. difficile 161)	MIC (C. difficile 173)	MIC (C. difficile 174)	MIC (M. tuberculosis)	MIC (C. difficile 9689)	MIC (C. difficile 152)
C/C=C1\NC(=O)[C@H]([C@@H](C)O)NC(=O)c2csc(n2)-c2ccc(-c3nc(-c4nc(C(=O)NC5(C(=O)NCCN6CCN(S(N)(=O)=O)CC6)CC5)cs4)cs3)nc2-c2csc(n2)[C@H]([C@@H](C)O)NC(=O)c2csc(n2)[C@H](C(C)C)NC(=O)c2csc1n2 [Compound 30]	0.5 µg/mL (≈ 0.391 µM)	1 µg/mL (≈ 0.783 µM)	0.25 µg/mL (≈ 0.196 µM)	1 µg/mL (≈ 0.783 µM)	1 µg/mL (≈ 0.783 µM)	0.5 µg/mL (≈ 0.391 µM)	0.089 µg/mL (≈ 0.0697 µM)	0.024 µg/mL (≈ 0.0188 µM)	0.559 µg/mL (≈ 0.438 µM)										
C/C=C1\NC(=O)[C@H]([C@@H](C)O)NC(=O)c2csc(n2)-c2ccc(-c3nc(-c4nc(C(=O)NC5(C(=O)NCCN6CCN(C(C)C)CC6)CC5)cs4)cs3)nc2-c2csc(n2)[C@H]([C@@H](C)O)NC(=O)c2csc(n2)[C@H](C(C)C)NC(=O)c2csc1n2 [Compound 35]	0.5 µg/mL (≈ 0.403 µM)		0.25 µg/mL (≈ 0.202 µM)	0.5 µg/mL (≈ 0.403 µM)	0.5 µg/mL (≈ 0.403 µM)	1 µg/mL (≈ 0.806 µM)	0.109 µg/mL (≈ 0.0879 µM)	0.139 µg/mL (≈ 0.112 µM)	0.123 µg/mL (≈ 0.0991 µM)	1 µg/mL (≈ 0.806 µM)									
C/C=C(\NC(=O)c1csc(-c2csc(-c3ccc4c(n3)-c3csc(n3)[C@H]([C@@H](C)O)NC(=O)c3csc(n3)[C@H](C(C)C)NC(=O)c3csc(n3)/C(=C/C)NC(=O)[C@H]([C@@H](C)O)NC(=O)c3csc-4n3)n2)n1)C(=O)NCCN1CCOCC1 [Compound 1]	0.125 µg/mL (≈ 0.104 µM)	0.125 µg/mL (≈ 0.104 µM)	0.125 µg/mL (≈ 0.104 µM)	0.125 µg/mL (≈ 0.104 µM)	0.25 µg/mL (≈ 0.208 µM)	0.125 µg/mL (≈ 0.104 µM)				1 µg/mL (≈ 0.834 µM)	1 µg/mL (≈ 0.834 µM)	0.125 µg/mL (≈ 0.104 µM)	0.5 µg/mL (≈ 0.417 µM)	0.5 µg/mL (≈ 0.417 µM)	1 µg/mL (≈ 0.834 µM)	0.5 µg/mL (≈ 0.417 µM)	0.076 µg/mL (≈ 0.0634 µM)		
C/C=C1\NC(=O)[C@H]([C@@H](C)O)NC(=O)c2csc(n2)-c2ccc(-c3nc(-c4nc(C(=O)NC5(C(=O)NCCCN6CCSCC6)CC5)cs4)cs3)nc2-c2csc(n2)[C@H]([C@@H](C)O)NC(=O)c2csc(n2)[C@H](C(C)C)NC(=O)c2csc1n2 [Compound 18]	0.25 µg/mL (≈ 0.203 µM)	1 µg/mL (≈ 0.813 µM)	0.5 µg/mL (≈ 0.407 µM)	1 µg/mL (≈ 0.813 µM)	1 µg/mL (≈ 0.813 µM)	0.5 µg/mL (≈ 0.407 µM)	0.082 µg/mL (≈ 0.0667 µM)	0.127 µg/mL (≈ 0.103 µM)	0.173 µg/mL (≈ 0.141 µM)				1 µg/mL (≈ 0.813 µM)	1 µg/mL (≈ 0.813 µM)	1 µg/mL (≈ 0.813 µM)	0.25 µg/mL (≈ 0.203 µM)		0.5 µg/mL (≈ 0.407 µM)	0.25 µg/mL (≈ 0.203 µM)
